From PubChem BioAssay (NCI)
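Interpolation was linear, between the two tested concentrations surrounding the appropriate level; five concentrations were tested over 48 hours in 96-well plates. Definition used: TGI = concentration required for complete inhibition of growth.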

Tests used:
Assay in all cases: NCI-60 cell line screen, 48 h
[1] = tested on: SNB-19 CNS
[2] = tested on: CCRF-CEM leukemia
[3] = tested on: A549 NSCLC
[4] = tested on: DMS 273 small cell lung
[5] = tested on: SK-OV-3 ovarian
[6] = tested on: DMS 114 small cell lung
[7] = tested on: LOX IMVI melanoma
[8] = tested on: RXF 393 renal
[9] = tested on: SK-MEL-2 melanoma
[10] = tested on: SK-MEL-5 melanoma
[11] = tested on: SF-539 CNS
[12] = tested on: OVCAR-8 ovarian
[13] = tested on: UACC-257 melanoma
[14] = tested on: HCT-116 colon
[15] = tested on: U251 CNS
[16] = tested on: NCI-H460 lung
[17] = tested on: TK-10 renal
[18] = tested on: OVCAR-4 ovarian
[19] = tested on: HCT-15 colon
[20] = tested on: OVCAR-3 ovarian
[21] = tested on: SNB-75 CNS
[22] = tested on: ACHN renal
[23] = tested on: SW-620 colon
[24] = tested on: SK-MEL-28 melanoma
[25] = tested on: MOLT-4 leukemia
[26] = tested on: KM12 colon
[27] = tested on: SF-268 CNS
[28] = tested on: HT29 colon
[29] = tested on: K-562 leukemia
[30] = tested on: UACC-62 melanoma
[31] = tested on: HL-60(TB) leukemia
[32] = tested on: SF-295 CNS
[33] = tested on: NCI-H522 lung
[34] = tested on: DLD-1 colon
[35] = tested on: NCI-H23 lung
[36] = tested on: SN12C renal
[37] = tested on: NCI-H226 lung
[38] = tested on: SNB-78 CNS
[39] = tested on: LXFL 529 NSCLC
[40] = tested on: MALME-3M melanoma
[41] = tested on: XF 498 CNS
[42] = tested on: HOP-92 NSCLC
[43] = tested on: HCC-2998 colon
[44] = tested on: UO-31 renal
[45] = tested on: M19-MEL melanoma
[46] = tested on: HOP-62 NSCLC
[47] = tested on: M14 melanoma
[48] = tested on: 786-0 renal
[49] = tested on: CAKI-1 renal
[50] = tested on: IGROV1 ovarian
[51] = tested on: EKVX NSCLC
[52] = tested on: OVCAR-5 ovarian
[53] = tested on: A498 renal
[54] = tested on: RPMI-8226 leukemia
[55] = tested on: COLO 205 colon
[56] = tested on: KM20L2 colon
[57] = tested on: SR leukemia

In the case of CN(C)CCCNC(=O)c1cccc2ccccc12, the TGI [1] is reported as greater than 100 µM, the TGI [2] is reported as greater than 100 µM and the TGI [3] is reported as greater than 100 µM. The TGI [4] was greater than 100 µM, the TGI [5] was greater than 100 µM and the TGI [6] was greater than 100 µM. It also gave a TGI [7] greater than 100 µM, a TGI [8] greater than 100 µM and a TGI [9] greater than 100 µM. The TGI [10] was greater than 100 µM, the TGI [11] was greater than 100 µM and the TGI [12] was greater than 100 µM. The TGI [13] was greater than 100 µM, the TGI [14] was greater than 100 µM and the TGI [15] was greater than 100 µM. It also gave a TGI [16] greater than 100 µM, a TGI [17] greater than 100 µM and a TGI [18] greater than 100 µM. The TGI [19] was greater than 100 µM, the TGI [20] was greater than 100 µM and the TGI [21] was greater than 100 µM. It also gave a TGI [22] greater than 100 µM, a TGI [23] greater than 100 µM and a TGI [24] greater than 100 µM. It also gave a TGI [25] greater than 100 µM, a TGI [26] greater than 100 µM and a TGI [27] greater than 100 µM. The TGI [28] was greater than 100 µM, the TGI [29] was greater than 100 µM and the TGI [30] was greater than 100 µM. It also gave a TGI [31] greater than 100 µM, a TGI [32] greater than 100 µM and a TGI [33] greater than 100 µM. For the same compound, the TGI [34] was greater than 100 µM, the TGI [35] was greater than 100 µM and the TGI [36] was greater than 100 µM. For the same compound, the TGI [37] was greater than 100 µM, the TGI [38] was greater than 100 µM and the TGI [39] was greater than 100 µM. It also gave a TGI [40] greater than 100 µM and a TGI [41] greater than 100 µM.
Work on Cc1ccc(S(=O)(=O)N(/N=C/C=C/c2ccccc2)c2nnc(-c3ccccc3)c(-c3ccccc3)n2)cc1 yielded a TGI [1] greater than 100 µM, a TGI [2] greater than 100 µM and a TGI [3] of 94.4 µM. For the same compound, the TGI [4] was 66.9 µM, the TGI [5] was 75.1 µM and the TGI [6] was 54.1 µM. For the same compound, the TGI [7] was 51.3 µM, the TGI [8] was 60.7 µM and the TGI [9] was 47.8 µM. For the same compound, the TGI [42] was 47.4 µM, the TGI [10] was 35.1 µM and the TGI [11] was 33 µM. For the same compound, the TGI [12] was greater than 100 µM, the TGI [13] was 98.7 µM and the TGI [15] was greater than 100 µM. It also gave a TGI [43] of 29.5 µM, a TGI [16] greater than 100 µM and a TGI [17] of 76.9 µM. The TGI [18] was greater than 100 µM, the TGI [19] was greater than 100 µM and the TGI [20] was 88.6 µM. For the same compound, the TGI [21] was 69 µM, the TGI [44] was 23.4 µM and the TGI [45] was 78.3 µM. It also gave a TGI [22] greater than 100 µM, a TGI [23] greater than 100 µM and a TGI [46] of 48.9 µM. The TGI [47] was 49.4 µM, the TGI [24] was 78.4 µM and the TGI [25] was 76.5 µM. The TGI [48] was 74.3 µM, the TGI [26] was greater than 100 µM and the TGI [27] was 96.9 µM. It also gave a TGI [28] of 23 µM, a TGI [49] of 57 µM and a TGI [29] of 80 µM. For the same compound, the TGI [50] was greater than 100 µM, the TGI [30] was greater than 100 µM and the TGI [31] was 50.4 µM. For the same compound, the TGI [32] was 64.3 µM, the TGI [33] was 51.9 µM and the TGI [51] was greater than 100 µM. The TGI [52] was greater than 100 µM, the TGI [34] was greater than 100 µM and the TGI [53] was greater than 100 µM. The TGI [54] was 40.3 µM, the TGI [35] was 66.8 µM and the TGI [36] was greater than 100 µM. It also gave a TGI [37] of 55.6 µM, a TGI [38] greater than 100 µM and a TGI [40] greater than 100 µM. It also gave a TGI [55] of 36.1 µM and a TGI [56] of 40.5 µM.
For c1ccc(C2N=NN(c3ccccc3)C2N2CCCCC2)cc1 (stereo unspecified), the TGI [1] was greater than 100 µM, the TGI [2] was greater than 100 µM and the TGI [3] was greater than 100 µM. The TGI [57] was greater than 100 µM, the TGI [5] was 98.3 µM and the TGI [6] was greater than 100 µM. The TGI [7] was greater than 100 µM, the TGI [9] was greater than 100 µM and the TGI [42] was 62.4 µM. For the same compound, the TGI [10] was greater than 100 µM, the TGI [11] was greater than 100 µM and the TGI [13] was greater than 100 µM. The TGI [14] was greater than 100 µM, the TGI [15] was greater than 100 µM and the TGI [43] was greater than 100 µM. The TGI [17] was greater than 100 µM, the TGI [18] was greater than 100 µM and the TGI [19] was greater than 100 µM. It also gave a TGI [20] greater than 100 µM, a TGI [21] of 55 µM and a TGI [44] greater than 100 µM. It also gave a TGI [45] greater than 100 µM, a TGI [22] greater than 100 µM and a TGI [23] greater than 100 µM. It also gave a TGI [46] greater than 100 µM, a TGI [47] greater than 100 µM and a TGI [24] greater than 100 µM. It also gave a TGI [25] greater than 100 µM, a TGI [48] greater than 100 µM and a TGI [26] greater than 100 µM. For the same compound, the TGI [27] was greater than 100 µM, the TGI [28] was greater than 100 µM and the TGI [49] was greater than 100 µM. It also gave a TGI [29] greater than 100 µM, a TGI [50] greater than 100 µM and a TGI [30] greater than 100 µM. The TGI [31] was greater than 100 µM, the TGI [32] was greater than 100 µM and the TGI [33] was greater than 100 µM. For the same compound, the TGI [51] was greater than 100 µM, the TGI [52] was greater than 100 µM and the TGI [34] was greater than 100 µM. For the same compound, the TGI [54] was greater than 100 µM, the TGI [35] was greater than 100 µM and the TGI [36] was greater than 100 µM. It also gave a TGI [37] greater than 100 µM, a TGI [38] greater than 100 µM and a TGI [39] greater than 100 µM. It also gave a TGI [40] greater than 100 µM, a TGI [55] greater than 100 µM and a TGI [41] greater than 100 µM. For the same compound, the TGI [56] was greater than 100 µM.
